# Reference: paper PMC9718779, “Discrete LAT condensates encode antigen information from single pMHC:TCR binding events” (Nature Communications, 2022)
# System: LAT condensation in primary mouse T cells
# Assay: Ligand potency for LAT condensation (cumulative distinct LAT condensates per cell)
# Type: cell-based
# Text: Single-molecule TIRF images are taken at the same power dosage (power*exposure) , either by high laser illumination intensity (8 mW) and short exposure time (25 ms) or by low laser illumination intensity (0.4 mW) and long exposure time (500 ms). Single-molecule TIRF images of long exposure time (500 ms) were collected every 2 to 4 s to localize single pMHC-TCR using a laser illumination intensity of 0.4 mW. LAT-eGFP was monitored at 0.4 mW every 2 to 4 s. When cells were imaged to measure LAT condensation only, the cells were imaged as they landed, or within 60 s of landing, for a duration of 300 s. Cells imaged for NFAT-mCherry was done by epifluorescence using 150-ms exposure time every 50 s at 3 and 6 μm above the coverslip to monitor NFAT dynamics. NFAT monitoring continued for 30 min unless otherwise stated.
# LAT condensates were initially tracked with TrackMate’s automated workflows and then each track was manually adjusted for proper linking/detection. A pMHC binding event was considered productive if there existed a LAT condensate trajectory whose first frame of detection could be found within 250 nm of the binding event.
# Data presented in Fig. 5 originated from T cells that were exposed to supported membranes containing 600 molecules μm^−2 of ICAM-1 and 0.5 molecules μm^−2 pMHC after loading MHC with one of the peptides from the panel. […]
sequence,measurement,setting,value
"ANERAELIAYLTQAAEK [T102E, null altered peptide]",rank of productivity in LAT condensate number,"MCC, T102S, ER60, T102E, cumulative time-series Fig. 5b",least
same,LAT signal of null pMHC + ICAM-1 condition,versus ICAM-1 only,did not produce any LAT signal over background levels
